In patent US12275731B2, “Azaindole inhibitors of wild-type and mutant forms of LRRK2” (DANA-FARBER CANCER INSTITUTE, INC., priority 2018, dated 2025):

Experiments:
Test in all cases: KinomeScan profiling
Format in all cases: binding
[1] = target: T1, PRKG1 (Homo sapiens, UniProt Q13976); details: PRKG1, 1 μM; read-out: % control
T1 sequence (Q13976 1-671): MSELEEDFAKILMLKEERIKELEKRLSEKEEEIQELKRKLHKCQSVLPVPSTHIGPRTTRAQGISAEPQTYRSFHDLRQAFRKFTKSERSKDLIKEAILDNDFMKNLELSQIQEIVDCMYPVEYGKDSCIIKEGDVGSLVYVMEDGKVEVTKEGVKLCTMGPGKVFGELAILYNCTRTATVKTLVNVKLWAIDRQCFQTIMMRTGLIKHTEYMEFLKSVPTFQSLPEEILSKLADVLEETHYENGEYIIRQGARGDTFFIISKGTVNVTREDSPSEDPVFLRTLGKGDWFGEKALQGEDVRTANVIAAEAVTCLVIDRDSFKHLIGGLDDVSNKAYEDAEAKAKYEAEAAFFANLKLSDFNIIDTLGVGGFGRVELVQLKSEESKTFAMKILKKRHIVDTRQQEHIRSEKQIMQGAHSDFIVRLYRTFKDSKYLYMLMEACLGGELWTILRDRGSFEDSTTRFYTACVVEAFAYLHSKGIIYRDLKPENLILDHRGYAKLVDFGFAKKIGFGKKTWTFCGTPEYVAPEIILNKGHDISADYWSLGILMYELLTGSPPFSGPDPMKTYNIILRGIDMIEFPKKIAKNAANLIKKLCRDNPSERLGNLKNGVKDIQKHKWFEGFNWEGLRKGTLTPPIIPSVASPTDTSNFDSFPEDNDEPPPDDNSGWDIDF
Procedure, shortened: (§1)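 1 μM cpd in DMSO; 468-kinase panel; readout RLU. % ctrl = (cpd − pos ctrl)/(neg ctrl − pos ctrl) ×100. Pos ctrl = 0%, DMSO = 100%. Hit cut-off <35%.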

[2] = target: T2, TTK (Homo sapiens, UniProt P33981); details: read-out: % control
T2 sequence (P33981 1-857): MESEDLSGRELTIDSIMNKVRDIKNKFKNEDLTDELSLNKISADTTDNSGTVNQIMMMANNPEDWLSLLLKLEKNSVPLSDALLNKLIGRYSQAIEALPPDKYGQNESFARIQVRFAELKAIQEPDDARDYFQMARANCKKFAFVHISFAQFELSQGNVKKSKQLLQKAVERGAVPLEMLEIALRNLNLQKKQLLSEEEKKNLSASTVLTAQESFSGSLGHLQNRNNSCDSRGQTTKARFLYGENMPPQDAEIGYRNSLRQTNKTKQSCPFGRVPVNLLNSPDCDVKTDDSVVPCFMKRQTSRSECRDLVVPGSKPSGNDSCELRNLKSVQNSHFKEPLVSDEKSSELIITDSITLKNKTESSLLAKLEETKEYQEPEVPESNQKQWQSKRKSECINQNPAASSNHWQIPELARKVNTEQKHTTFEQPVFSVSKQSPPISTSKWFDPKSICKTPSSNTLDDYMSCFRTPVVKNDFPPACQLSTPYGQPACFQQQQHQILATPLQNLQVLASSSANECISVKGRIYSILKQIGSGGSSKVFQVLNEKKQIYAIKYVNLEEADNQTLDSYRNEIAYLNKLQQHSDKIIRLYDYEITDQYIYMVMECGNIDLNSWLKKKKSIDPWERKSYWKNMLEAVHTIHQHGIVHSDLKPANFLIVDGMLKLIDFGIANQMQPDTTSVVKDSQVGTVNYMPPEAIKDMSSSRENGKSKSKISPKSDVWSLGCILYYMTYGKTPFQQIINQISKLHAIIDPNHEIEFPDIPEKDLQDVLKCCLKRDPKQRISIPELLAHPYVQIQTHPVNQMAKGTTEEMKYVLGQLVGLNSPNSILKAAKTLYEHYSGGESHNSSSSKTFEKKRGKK
Procedure, shortened: as §1

[3] = target: T3, IKK-alpha (Homo sapiens, UniProt O15111); details: read-out: % control
T3 sequence (O15111 1-745): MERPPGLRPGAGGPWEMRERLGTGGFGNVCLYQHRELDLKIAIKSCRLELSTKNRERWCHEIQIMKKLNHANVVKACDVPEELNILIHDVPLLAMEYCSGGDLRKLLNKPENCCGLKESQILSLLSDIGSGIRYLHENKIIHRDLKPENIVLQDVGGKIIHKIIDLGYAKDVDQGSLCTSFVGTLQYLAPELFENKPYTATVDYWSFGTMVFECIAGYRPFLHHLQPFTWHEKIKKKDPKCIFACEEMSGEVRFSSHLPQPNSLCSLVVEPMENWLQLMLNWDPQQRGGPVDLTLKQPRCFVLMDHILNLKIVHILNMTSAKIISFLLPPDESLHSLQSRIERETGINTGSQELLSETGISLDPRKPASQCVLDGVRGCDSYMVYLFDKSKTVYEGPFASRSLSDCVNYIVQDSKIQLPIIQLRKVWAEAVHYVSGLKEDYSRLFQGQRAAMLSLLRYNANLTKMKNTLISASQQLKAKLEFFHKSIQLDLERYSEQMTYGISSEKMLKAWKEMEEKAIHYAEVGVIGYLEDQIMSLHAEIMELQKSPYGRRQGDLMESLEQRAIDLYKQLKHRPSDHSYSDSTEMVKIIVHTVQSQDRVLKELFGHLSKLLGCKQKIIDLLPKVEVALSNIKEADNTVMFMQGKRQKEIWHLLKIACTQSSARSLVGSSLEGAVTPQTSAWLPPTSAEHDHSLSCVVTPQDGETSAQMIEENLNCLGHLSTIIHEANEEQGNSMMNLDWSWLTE
Procedure, shortened: as §1

SMILES	remaining binding at 1 µM [1] [%]	remaining binding at 1 µM [2] [%]	remaining binding at 1 µM [3] [%]
CNc1c(-c2cnn([C@H]3CCN(C(C)=O)C[C@@H]3F)c2)cnc2[nH]cc(Cl)c12 [Compound 77, 1-((3S,4S)-4-(4-(3-chloro-4-(methylamino)-1H-pyrrolo[2,3-b]pyridin-5-yl)-1H-pyrazol-1-yl)-3-fluoropiperidin-1-yl)ethan-1-one]	100	34	17
CNc1c(-c2ccc(C(=O)N3CCC(N4CCOCC4)CC3)cc2)cnc2[nH]cc(Cl)c12 [Compound 96, (4-(3-chloro-4-(methylamino)-1H-pyrrolo[2,3-b]pyridin-5-yl)phenyl)(4-morpholinopiperidin-1-yl)methanone]	100	3.6	14
O=C(c1ccc(-c2cnc3[nH]cc(Cl)c3c2NC2CCCC2)cc1)N1CCC(N2CCOCC2)CC1 [Compound 101, (4-(3-chloro-4-(cyclopentylamino)-1H-pyrrolo[2,3-b]pyridin-5-yl)phenyl)(4-morpholinopiperidin-1-yl)methanone]	89	54	49
